Data as given in the supplement of paper PMC11208160.

Test: recombinant UMI read abundance after kanamycin selection (control-corrected) (log10(CPM+1)); higher = more efficient recombination; extreme values may be limits of the assay; sequences stand for … in AGTGCAGAGAAAATCGGCCAGTTTTCTCTGCCTGCAGTCCGCATGCCGTGGGACCCCTTGGGTTCTAACCTGTTGCCTAGATTTATGCAGCGGACTGCCTTTCTCCCAAAGTGATAAACCGG…AGGTTGGTTTCACT; site = the 11-nt donor
In short: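 Under IPTG (0.07 mM) plus kanamycin, or without selection, Escherichia coli carrying a UMI-tagged donor and donor-binding-loop pair library and a target plasmid for the IS621 bridge recombinase were plated in two replicates. Recombinant UMIs were PCR-amplified across the donor–target junction and sequenced. Counts were converted to CPM, averaged over replicates, scaled by control-derived factors and reported as log10(CPM+1).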
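Also: IS621 bridge recombinase in Escherichia coli cells against a fixed T5 target plasmid.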

Sequence	recombinant UMI read abundance (log10)
GTTGCTCCATGGACCGGTTTTCCCGGTAATCCGTATTTGGT (site GTTGTTCCTAC)	0.0159
GTTGCTGCATGGACCGGTTTTCCCGGTAATCCGTATTTGGC (site GTTGCTGCTGC)	0.902
GTTGGAACATGGACCGGTTTTCCCGGTAATCCGTATTTGGC (site GTTAGAACTGC)	1.13
GTTGGAACATGGACCGGTTTTCCCGGTAATCCGTATTTGGC (site GTTCGAACTGC)	0
GTTGGAACATGGACCGGTTTTCCCGGTAATCCGTATTTGGC (site GTTGGAACTGC)	2.55
GTTGGAACATGGACCGGTTTTCCCGGTAATCCGTATTTGGC (site GTTTGAACTGC)	0
GTTGGAGCATGGACCGGTTTTCCCGGTAATCCGTATTTGCA (site GTTAGAGCTTG)	2.17
GTTGGAGCATGGACCGGTTTTCCCGGTAATCCGTATTTGCA (site GTTCGAGCTTG)	0
GTTGGAGCATGGACCGGTTTTCCCGGTAATCCGTATTTGCA (site GTTGGAGCTTG)	2.49
GTTGGAGCATGGACCGGTTTTCCCGGTAATCCGTATTTGCA (site GTTTGAGCTTG)	0.659
GTTGGTCCATGGACCGGTTTTCCCGGTAATCCGTATTTGGT (site GTTGATCCTAC)	0.0104
GTTGGTCCATGGACCGGTTTTCCCGGTAATCCGTATTTGGT (site GTTGCTCCTAC)	0.00872
GTTGGTCCATGGACCGGTTTTCCCGGTAATCCGTATTTGGT (site GTTGGTCCTAC)	0.0121
GTTGGTCCATGGACCGGTTTTCCCGGTAATCCGTATTTGGT (site GTTGTTCCTAC)	0.00359
GTTGTTCCATGGACCGGTTTTCCCGGTAATCCGTATTTGGA (site GTTGTTCCTAC)	0
GTTGTTCCATGGACCGGTTTTCCCGGTAATCCGTATTTGGA (site GTTGTTCCTCC)	0.00995
GTTGTTCCATGGACCGGTTTTCCCGGTAATCCGTATTTGGA (site GTTGTTCCTGC)	0
GTTGTTCCATGGACCGGTTTTCCCGGTAATCCGTATTTGGA (site GTTGTTCCTTC)	0.0132
GTTTAGCCATGGACCGGTTTTCCCGGTAATCCGTATTTGGC (site GTTTAGCCTGC)	0

Sequence	recombinant UMI read abundance (log10)
GTTTATCCATGGACCGGTTTTCCCGGTAATCCGTATTTGCT (site GATTATCCTAG)	0
GTTTATCCATGGACCGGTTTTCCCGGTAATCCGTATTTGCT (site GCTTATCCTAG)	0
GTTTATCCATGGACCGGTTTTCCCGGTAATCCGTATTTGCT (site GGTTATCCTAG)	0
GTTTATCCATGGACCGGTTTTCCCGGTAATCCGTATTTGCT (site GTTTATCCTAG)	0.492
GTTTCGGCATGGACCGGTTTTCCCGGTAATCCGTATTTGGG (site CGGGGCACTAA)	0.0198
GTTTGAACATGGACCGGTTTTCCCGGTAATCCGTATTTGGC (site GTTAGAACTGC)	0
GTTTGAACATGGACCGGTTTTCCCGGTAATCCGTATTTGGC (site GTTCGAACTGC)	0
GTTTGAACATGGACCGGTTTTCCCGGTAATCCGTATTTGGC (site GTTGGAACTGC)	0
GTTTGAACATGGACCGGTTTTCCCGGTAATCCGTATTTGGC (site GTTTGAACTGC)	0
GTTTGCACATGGACCGGTTTTCCCGGTAATCCGTATTTGCA (site GTTTGCACTTG)	0.292
GTTTGGACATGGACCGGTTTTCCCGGTAATCCGTATTTGGA (site GTTTGGACTTC)	0.0184
TAAAACTCATGGACCGGTTTTCCCGGTAATCCGTATTTGGG (site TAAAACTCTCC)	0.00919
TAAAATACATGGACCGGTTTTCCCGGTAATCCGTATTTGCA (site TAAAATACTTG)	0
TAAAATACATGGACCGGTTTTCCCGGTAATCCGTATTTGCA (site TACAATACTTG)	0.953
TAAAATACATGGACCGGTTTTCCCGGTAATCCGTATTTGCA (site TAGAATACTTG)	0
TAAAATACATGGACCGGTTTTCCCGGTAATCCGTATTTGCA (site TATAATACTTG)	0.614
TAAACCGCATGGACCGGTTTTCCCGGTAATCCGTATTTGCG (site TAAACCGCTCG)	1.29
TAAAGACCATGGACCGGTTTTCCCGGTAATCCGTATTTGTA (site TAAAGACCTTA)	0.299
TAAAGACCATGGACCGGTTTTCCCGGTAATCCGTATTTGTA (site TAAAGCCCTTA)	0.624

Sequence	recombinant UMI read abundance (log10)
TAAAGACCATGGACCGGTTTTCCCGGTAATCCGTATTTGTA (site TAAAGGCCTTA)	0.257
TAAAGACCATGGACCGGTTTTCCCGGTAATCCGTATTTGTA (site TAAAGTCCTTA)	0.166
TAAAGAGCATGGACCGGTTTTCCCGGTAATCCGTATTTGGG (site TAAAGAGCTCC)	0.356
TAAAGAGCATGGACCGGTTTTCCCGGTAATCCGTATTTGGG (site TAACGAGCTCC)	0.0368
TAAAGAGCATGGACCGGTTTTCCCGGTAATCCGTATTTGGG (site TAAGGAGCTCC)	0.0278
TAAAGAGCATGGACCGGTTTTCCCGGTAATCCGTATTTGGG (site TAATGAGCTCC)	0.00709
TAAAGCTCATGGACCGGTTTTCCCGGTAATCCGTATTTGTT (site TAAAGCTCTAA)	1.48
TAAAGTCCATGGACCGGTTTTCCCGGTAATCCGTATTTGGA (site TAAAGTCCTTA)	0.0112
TAAAGTCCATGGACCGGTTTTCCCGGTAATCCGTATTTGGA (site TAAAGTCCTTC)	0.231
TAAAGTCCATGGACCGGTTTTCCCGGTAATCCGTATTTGGA (site TAAAGTCCTTG)	0
TAAAGTCCATGGACCGGTTTTCCCGGTAATCCGTATTTGGA (site TAAAGTCCTTT)	0.978
TAAAGTCCATGGACCGGTTTTCCCGGTAATCCGTATTTGTC (site TAAAGTCCTAA)	0.0955
TAAAGTCCATGGACCGGTTTTCCCGGTAATCCGTATTTGTC (site TAAAGTCCTCA)	0.00821
TAAAGTCCATGGACCGGTTTTCCCGGTAATCCGTATTTGTC (site TAAAGTCCTGA)	0.327
TAAAGTCCATGGACCGGTTTTCCCGGTAATCCGTATTTGTC (site TAAAGTCCTTA)	0.00692
TAAAGTCCATGGACCGGTTTTCCCGGTAATCCGTATTTGTT (site TAAAGTCCTAA)	0.293
TAAAGTCCATGGACCGGTTTTCCCGGTAATCCGTATTTGTT (site TAAAGTCCTCA)	0.0132
TAAAGTCCATGGACCGGTTTTCCCGGTAATCCGTATTTGTT (site TAAAGTCCTGA)	0
TAAAGTCCATGGACCGGTTTTCCCGGTAATCCGTATTTGTT (site TAAAGTCCTTA)	0
